Test [1] has as its target T1, EpHB4 (Homo sapiens, UniProt P54760).
T1 sequence (P54760 16-987): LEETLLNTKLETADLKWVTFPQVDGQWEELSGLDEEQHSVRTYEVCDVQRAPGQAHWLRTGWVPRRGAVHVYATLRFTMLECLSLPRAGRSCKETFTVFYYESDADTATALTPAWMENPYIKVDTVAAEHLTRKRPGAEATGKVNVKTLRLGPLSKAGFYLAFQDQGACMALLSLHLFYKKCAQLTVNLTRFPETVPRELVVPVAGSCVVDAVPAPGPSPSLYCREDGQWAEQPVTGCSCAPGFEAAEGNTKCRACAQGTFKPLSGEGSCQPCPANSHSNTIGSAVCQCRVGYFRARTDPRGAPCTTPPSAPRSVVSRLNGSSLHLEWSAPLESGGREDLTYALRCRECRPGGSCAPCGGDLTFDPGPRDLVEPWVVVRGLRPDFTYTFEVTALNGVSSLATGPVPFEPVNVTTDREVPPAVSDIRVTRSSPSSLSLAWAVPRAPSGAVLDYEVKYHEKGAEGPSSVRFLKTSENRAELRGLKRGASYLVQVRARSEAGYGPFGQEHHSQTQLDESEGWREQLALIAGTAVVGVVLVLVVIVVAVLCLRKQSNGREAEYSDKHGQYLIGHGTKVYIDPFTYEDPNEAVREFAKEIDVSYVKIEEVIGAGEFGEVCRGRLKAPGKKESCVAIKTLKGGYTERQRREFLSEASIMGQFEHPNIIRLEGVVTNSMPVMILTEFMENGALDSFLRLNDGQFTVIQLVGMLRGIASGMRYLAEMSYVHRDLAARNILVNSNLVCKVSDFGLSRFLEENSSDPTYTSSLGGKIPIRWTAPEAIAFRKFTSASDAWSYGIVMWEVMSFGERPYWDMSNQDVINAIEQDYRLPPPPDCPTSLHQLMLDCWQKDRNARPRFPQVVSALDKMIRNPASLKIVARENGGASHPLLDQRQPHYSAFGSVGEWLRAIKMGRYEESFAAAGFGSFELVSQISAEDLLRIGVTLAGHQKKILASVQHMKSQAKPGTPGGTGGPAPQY
Nature of the test: NanoBRET target engagement. It is filed as cell-based.

For test [2], the target named is T2, EpHB1 (Homo sapiens, UniProt P54762).
T2 sequence (P54762 18-984): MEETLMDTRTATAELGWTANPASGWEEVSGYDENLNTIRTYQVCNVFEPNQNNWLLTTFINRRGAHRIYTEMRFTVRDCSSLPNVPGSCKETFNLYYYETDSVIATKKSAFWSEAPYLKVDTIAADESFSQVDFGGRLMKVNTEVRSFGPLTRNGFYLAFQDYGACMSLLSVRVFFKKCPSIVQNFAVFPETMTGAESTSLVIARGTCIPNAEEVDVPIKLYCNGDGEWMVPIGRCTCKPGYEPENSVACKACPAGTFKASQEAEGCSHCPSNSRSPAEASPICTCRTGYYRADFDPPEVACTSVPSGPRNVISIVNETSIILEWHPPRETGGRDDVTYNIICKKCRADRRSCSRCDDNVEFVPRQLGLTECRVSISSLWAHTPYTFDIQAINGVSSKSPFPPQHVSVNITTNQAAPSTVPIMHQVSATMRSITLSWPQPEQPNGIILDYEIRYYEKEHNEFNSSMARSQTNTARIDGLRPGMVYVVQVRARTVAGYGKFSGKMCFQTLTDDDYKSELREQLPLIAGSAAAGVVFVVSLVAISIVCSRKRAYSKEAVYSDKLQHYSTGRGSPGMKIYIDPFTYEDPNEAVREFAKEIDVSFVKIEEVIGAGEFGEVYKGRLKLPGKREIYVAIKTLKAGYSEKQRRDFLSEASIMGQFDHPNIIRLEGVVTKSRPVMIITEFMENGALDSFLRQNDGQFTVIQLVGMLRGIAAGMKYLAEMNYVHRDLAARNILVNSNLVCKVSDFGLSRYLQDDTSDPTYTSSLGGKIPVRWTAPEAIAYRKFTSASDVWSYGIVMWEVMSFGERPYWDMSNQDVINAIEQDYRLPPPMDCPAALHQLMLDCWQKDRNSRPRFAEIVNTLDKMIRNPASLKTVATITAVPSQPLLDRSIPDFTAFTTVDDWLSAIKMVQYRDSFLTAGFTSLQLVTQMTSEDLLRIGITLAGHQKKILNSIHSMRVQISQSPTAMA
Nature of the test: NanoBRET target engagement. It is filed as cell-based. Background: Bioluminescence resonance energy transfer reports proximity on the nanometre scale.

For test [3], the target named is MST3 (Homo sapiens, UniProt Q9Y6E0). Nature of the test: biochemical.
Chain of MST3 (Q9Y6E0 whole entry): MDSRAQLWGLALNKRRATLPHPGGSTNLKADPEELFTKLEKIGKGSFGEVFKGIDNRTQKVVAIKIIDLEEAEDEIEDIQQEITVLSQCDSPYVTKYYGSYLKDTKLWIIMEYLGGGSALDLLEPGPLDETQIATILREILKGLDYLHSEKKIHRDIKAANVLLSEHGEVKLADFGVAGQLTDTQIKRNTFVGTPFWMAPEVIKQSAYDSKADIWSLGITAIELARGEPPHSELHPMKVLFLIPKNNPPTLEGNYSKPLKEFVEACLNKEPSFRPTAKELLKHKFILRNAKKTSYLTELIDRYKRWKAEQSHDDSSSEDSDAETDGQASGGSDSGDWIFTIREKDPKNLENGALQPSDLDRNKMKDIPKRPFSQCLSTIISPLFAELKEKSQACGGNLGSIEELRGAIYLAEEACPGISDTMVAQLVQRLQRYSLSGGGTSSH
Test [4] has as its target PAK1 (Homo sapiens, UniProt Q13153). Nature of the test: biochemical.
[5] abbreviates: intact mode, HEK293T, 37 °C, 2 h, tracer displacement.

Molecules are shown by their SMILES. Like-named read-outs stand apart in the source and are kept apart here.

Chain of PAK1 (Q13153 whole entry): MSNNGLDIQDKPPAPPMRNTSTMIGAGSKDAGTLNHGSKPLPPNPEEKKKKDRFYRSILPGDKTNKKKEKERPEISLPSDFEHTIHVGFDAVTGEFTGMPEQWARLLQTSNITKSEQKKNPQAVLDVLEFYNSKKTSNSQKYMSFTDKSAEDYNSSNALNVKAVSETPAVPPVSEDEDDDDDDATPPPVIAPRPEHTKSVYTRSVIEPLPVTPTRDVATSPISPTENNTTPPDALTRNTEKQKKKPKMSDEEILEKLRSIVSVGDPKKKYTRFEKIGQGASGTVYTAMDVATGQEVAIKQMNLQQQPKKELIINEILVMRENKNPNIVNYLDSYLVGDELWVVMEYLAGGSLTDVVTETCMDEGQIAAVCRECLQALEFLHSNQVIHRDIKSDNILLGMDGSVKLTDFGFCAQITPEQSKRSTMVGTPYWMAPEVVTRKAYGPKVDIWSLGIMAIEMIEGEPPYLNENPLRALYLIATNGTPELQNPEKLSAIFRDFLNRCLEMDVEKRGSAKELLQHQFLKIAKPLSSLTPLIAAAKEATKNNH

Broadly, the IC50 is the concentration that inhibits the measured activity by half. As for `CNc1ncc2cc(-c3ccccc3Cl)c(=O)n(CCCCN)c2n1` [compound 4, 8-(4-Aminobutyl)-6-(2-chlorophenyl)-2-(methylamino)pyrido[2,3-d]pyrimidin-7(8H)-one], the 50% inhibitory concentration (IC50) is 50 ± 12 nM in test [1] and 78 ± 2 nM in test [2].
For the compound `CNc1ncc2cc(-c3cc(Cl)ccc3Cl)c(=O)n(CCCCN)c2n1` [compound 8, 8-(4-Aminobutyl)-6-(2,5-dichlorophenyl)-2-(methylamino)pyrido[2,3-d]pyrimidin-7(8H)-one], the IC50 in test [1] is 188 ± 17 nM; in test [2], 302 ± 26 nM. The ΔTm at 10 µM in test [3] (read-out: ∆Tm 8) worked out at 1.9 °C; in test [4] (read-out: ∆Tm 8) it was 0.7 °C.
For the compound `CNc1ncc2cc(-c3cc(Br)ccc3Br)c(=O)n(CCCCN)c2n1` [compound 11, 8-(4-Aminobutyl)-6-(2,5-dibromophenyl)-2-(methylamino)pyrido[2,3-d]pyrimidin-7(8H)-one], the ΔTm at 10 µM in test [3] (read-out: ∆Tm 11) amounted to 1.9 °C; in test [4] (read-out: ∆Tm 11), 0.7 °C.
As for `CNc1ncc2cc(-c3cc(F)ccc3F)c(=O)n(CCCCN)c2n1` [compound 5, 8-(4-Aminobutyl)-6-(2,5-difluorophenyl)-2-(methylamino)pyrido[2,3-d]pyrimidin-7(8H)-one], the IC50 is 607 ± 37 nM in test [1] (setting [5]) and 632 ± 10 nM in test [2] (setting [5]).
Take `CNc1ncc2cc(-c3cc(Cl)ccc3Br)c(=O)n(CCCCN)c2n1` [compound 10, 8-(4-Aminobutyl)-6-(2-bromo-5-chlorophenyl)-2-(methylamino)pyrido[2,3-d]pyrimidin-7(8H)-one]: the ΔTm at 10 µM in test [3] (read-out: ∆Tm 10) came out at 2 °C; in test [4] (read-out: ∆Tm 10) it was 0.6 °C.

Values taken from doi:10.1101/2023.03.24.534094v2 (biorxiv, 2023).
